According to PMC10340331, “Methylthiosulfonate-Based Cysteine Modifiers as Alternative Inhibitors of Mercurial-Sensitive Aquaporins” (Cells, 2023):
Numbering of substitutions follows the chain as printed. Where two headings read alike, the source gives them in different places.

Key:
Type in all cases: cell-based
AQP1 [1] = target: T1, AQP1 (Rattus norvegicus, UniProt P29975); assay: stopped-flow light scattering water permeability of AQP1-expressing yeast at […]; Cys189Ala variant resistant
T1 sequence (P29975 1-269): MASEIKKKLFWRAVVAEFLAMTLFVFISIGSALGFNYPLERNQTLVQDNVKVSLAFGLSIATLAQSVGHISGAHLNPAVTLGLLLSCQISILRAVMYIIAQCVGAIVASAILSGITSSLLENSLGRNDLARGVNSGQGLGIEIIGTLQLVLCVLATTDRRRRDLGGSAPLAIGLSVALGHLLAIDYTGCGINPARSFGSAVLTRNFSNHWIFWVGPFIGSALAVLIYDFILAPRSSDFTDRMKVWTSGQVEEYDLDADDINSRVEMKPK

AQP1 [2] = target: T1, AQP1; assay: stopped-flow light scattering water permeability of AQP1-expressing yeast at […] (marginal effect); Cys189Ala variant resistant
AQP1 [3] = target: T1, AQP1; assay: stopped-flow light scattering water permeability of AQP1-expressing yeast; Cys189Ala variant resistant; reversed by ACC/DTT
AQP9 [4] = target: T2, AQP9 (Homo sapiens, UniProt O43315); assay: stopped-flow light scattering water and glycerol permeability of AQP9-expressing yeast at […]
T2 sequence (O43315 1-295): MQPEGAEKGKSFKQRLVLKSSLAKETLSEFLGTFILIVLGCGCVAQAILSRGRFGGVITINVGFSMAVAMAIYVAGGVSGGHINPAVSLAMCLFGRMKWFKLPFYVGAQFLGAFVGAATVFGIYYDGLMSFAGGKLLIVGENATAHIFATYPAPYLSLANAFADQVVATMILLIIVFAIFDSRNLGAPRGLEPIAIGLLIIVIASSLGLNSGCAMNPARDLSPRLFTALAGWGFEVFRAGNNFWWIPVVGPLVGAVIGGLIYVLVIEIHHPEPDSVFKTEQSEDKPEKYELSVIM

AQP9 [5] = target: T3, AQP9 (Homo sapiens, UniProt O43315, C213A); assay: stopped-flow light scattering water and glycerol permeability of AQP9 Cys213Ala-expressing yeast at […]
T3 sequence (O43315 1-295 C213A): T2 sequence (O43315 1-295) with C213A

AQP9 [6] = target: T3, AQP9; assay: as above; remark: listed apart in the source
AQP9 [7] = target: T2, AQP9; assay: stopped-flow light scattering water and glycerol permeability of AQP9-expressing yeast at […]; remark: listed apart in the source

CCCSS(C)(=O)=O [PMTS]
stopped-flow light scattering water permeability of AQP1-expressing yeast at 1 m (AQP1 [1]): modification with S-n-propyl from PMTS conferred intermediate inhibition

CSS(C)(=O)=O [MMTS]
stopped-flow light scattering water permeability of AQP1-expressing yeast at 1 m (AQP1 [2]): the transfer of a small S-methyl from MMTS had a marginal effect on the water permeability

CS(=O)(=O)SCc1ccccc1 [BMTS]
IC50 (AQP1 [3]): 111 ± 3 µM | stopped-flow light scattering water and glycerol permeability of AQP9-expressing (AQP9 [4]): AQP9 water and glycerol permeability were strongly inhibited by BMTS and pCMBS | stopped-flow light scattering water and glycerol permeability of AQP9 Cys213Ala- (AQP9 [5]): The water permeability of AQP9 Cys213Ala was still inhibited to the same degree as that of the wildtype protein

O=S(=O)([O-])c1cc[c]([Hg][Cl])cc1 [pCMBS]
stopped-flow light scattering water and glycerol permeability of AQP9 Cys213Ala- (AQP9 [6]): treatment of AQP9 Cys213Ala with BMTS or pCMBS failed to generate full resistance to the Cys-modifying agents | stopped-flow light scattering water and glycerol permeability of AQP9-expressing (AQP9 [7]): AQP9 water and glycerol permeability were strongly inhibited by BMTS and pCMBS
